Results reported in patent publication US20110201665A1, “Compositions, Methods, and Kits for Treating Influenza Viral Infections” (priority 2009, published 2011).

How the values were obtained:
[1] = system: Influenza A/NWS/33 (H1N1); set-up: species or system C57/BL6 mice; settings: mouse, in vivo; for survival on day 8: po
[2] = in vivo, po; cited from earlier work
[3] = set-up: dose or concentration left out as unconfirmed; settings: Phase I, single or multiple oral doses; cited from earlier work
influenza A or B viruses = settings: human, in vivo, po; cited from earlier work

O=C(Nc1c(Cl)cncc1Cl)c1ccc(OC(F)F)c(OCC2CC2)c1 [roflumilast, 3-(cyclopropylmethoxy)-N-(3,5-dichloropyridin-4-yl)-4-(difluoromethoxy)benzamide]
survival on day 8 [1]: 0%

COc1ccc(C2CNC(=O)C2)cc1OC1CCCC1 (stereo not shown) [rolipram, 4-[3-(cyclopentyloxy)-4-methoxyphenyl]-2-pyrrolidone]
survival on day 8 [1]: 0%

CC(C)C(=O)c1c(C(C)C)nn2ccccc12 [ibudilast, 1-(2-isopropyl-pyrazolo[1,5-a]pyridine-3-yl)-2-methylpropan-1-one]
survival on day 8 [1]: 0%

CCOC(=O)C1=C[C@@H](OC(CC)CC)[C@H](NC(C)=O)[C@@H](N)C1 [oseltamivir, (3R,4R,5S)-4-acetylamino-5-amino-3(1-ethylpropoxy)-1-cyclohexene-1-carboxylic acid, ethyl ester]
survival rate [1]: 40%
half-life [2]: 6 to 10 h

CCC(CC)[C@H](NC(C)=O)[C@@H]1[C@H](O)[C@@H](C(=O)O)C[C@H]1NC(=N)N [peramivir, (1S,2S,3S,4R)-3-[(1S)-1-Acetamido-2-ethyl-butyl]-4-(diaminomethylideneamino)-2-hydroxy-cyclopentane-1-carboxylic acid]
tolerability [3]: well-tolerated
adverse effects (influenza A or B viruses): no adverse effects
